Earlier results in US6548469B2, “Cleaning compositions” (Merck Patent GmbH, priority 1996, dated 2003).

Conditions: use in cosmetics formulations on humans

CCCCN(CCC(=O)OCC)C(C)=O [ethyl 3-(N-butylacetamino)propionate]
skin and mucosa tolerance: outstanding | toxic, allergizing or sensitizing properties: without toxic, allergizing or sensitizing properties
